Assay [1] deals with M. tuberculosis H37Rv-LP DprE1 C387S. The assay is classed as cell-based, Mycobacterium tuberculosis.
Assay [2] concerns M. tuberculosis H37Rv-LP MmpL3 F255L. The format is cell-based, Mycobacterium tuberculosis.
Assay [3] has as its system M. tuberculosis H37Rv-LP QcrB A396T. The assay is classed as cell-based, Mycobacterium tuberculosis.
For assay [4], the system named is M. tuberculosis H37Rv ATCC 26518 QcrBT313I. The format is cell-based, Mycobacterium tuberculosis.
For assay [5], the system named is M. tuberculosis H37Rv ATCC 26518 QcrBM342T. The assay is classed as cell-based, Mycobacterium tuberculosis.
Assay [6] concerns M. tuberculosis resistant isolates LP-0499227-RM. The assay is classed as cell-based, Mycobacterium tuberculosis.
In assay [7] the test system is M. tuberculosis H37Rv ATCC 27294 cydKO. Briefly: microbe, parasite or virus in culture. The format is cell-based. Conditions: Mycobacterium tuberculosis, 120 h, read-out: MIC, H37Rv ATCC 27294 cydKO.
The test system of assay [8] is M. tuberculosis resistant isolates LP-0497553-RM. Briefly: microbe, parasite or virus in culture. The format is cell-based, Mycobacterium tuberculosis. Conditions: for MIC: Mycobacterium tuberculosis, 504 h, 24-well agar plates, 3 weeks.

This note sets out measurements from paper PMC9017309, “Triazolopyrimidines Target Aerobic Respiration in Mycobacterium tuberculosis” (Antimicrobial Agents and Chemotherapy, 2022).

Converted amounts (≈) assume the structure as drawn. Where two headings read alike, the source gives them in different places.

Consider `Cc1ccc(CCNc2cc(-c3ccccc3)nc3ncnn23)cc1` [TPN-0006245], for which the “MIC, DprE1 C387S” value in assay [1] came to 0.92 ± 0.3 µM (≈ 0.303 µg/mL). For the same compound, the “MIC, MmpL3 F255L” value in assay [2] was determined as 2 ± 0.07 µM (≈ 0.659 µg/mL). Further, the “MIC, QcrB A396T” value in assay [3] turned out to be 5.6 ± 2.5 µM (≈ 1.84 µg/mL). Also, in assay [4], the “MIC, H37Rv ATCC 26518 QcrBT313I” value is >20 µM. The “MIC, H37Rv ATCC 26518 QcrBM342T” value in assay [5] was >20 µM.
In the case of `FC(F)(F)c1ccc(CCNc2cc(-c3ccccn3)nc3ncnn23)cc1` [TPN-0006267], in assay [1], the “MIC, DprE1 C387S” value came to 0.66 ± 0.01 µM (≈ 0.254 µg/mL). Also, the “MIC, MmpL3 F255L” value in assay [2] is 1.8 ± 0.57 µM (≈ 0.692 µg/mL). In addition, in assay [3], the “MIC, QcrB A396T” value came out at 5.9 ± 3.5 µM (≈ 2.27 µg/mL). The “MIC, H37Rv ATCC 26518 QcrBT313I” value in assay [4] was >20 µM. Moreover, in assay [5], the “MIC, H37Rv ATCC 26518 QcrBM342T” value was found to be 10 µM (≈ 3.84 µg/mL). In assay [6], the “MIC on solid medium, LP-0499227-RM1” value was >100 µM; the “MIC on solid medium, LP-0499227-RM2” value is >100 µM; the “MIC on solid medium, LP-0499227-RM3” value is >100 µM; the “MIC on solid medium, LP-0499227-RM4” value is 25 µM (≈ 9.61 µg/mL). In assay [6], the “MIC on solid medium, LP-0499227-RM7” value is >100 µM.
In the case of `COc1ccc(CCNc2cc(-c3ccccc3)nc3ncnn23)cc1` [TPN-0006218], in assay [1], the “MIC, DprE1 C387S” value worked out at 0.94 ± 0.67 µM (≈ 0.325 µg/mL). Further, in assay [2], the “MIC, MmpL3 F255L” value is 2 ± 0.99 µM (≈ 0.691 µg/mL). Also, in assay [3], the “MIC, QcrB A396T” value is 6.8 ± 2.8 µM (≈ 2.35 µg/mL).
In the case of `COc1ccc(CCNc2cc(-c3ccccn3)nc3ncnn23)cc1` [TPN-0006239], the “MIC, DprE1 C387S” value in assay [1] was 0.42 ± 0.07 µM (≈ 0.145 µg/mL). Further, in assay [2], the “MIC, MmpL3 F255L” value turned out to be 0.86 ± 0.21 µM (≈ 0.298 µg/mL). For the same compound, the “MIC, QcrB A396T” value in assay [3] stood at 3.4 ± 0.28 µM (≈ 1.18 µg/mL). Also, the “MIC, H37Rv ATCC 26518 QcrBT313I” value in assay [4] is >20 µM. Moreover, the “MIC, H37Rv ATCC 26518 QcrBM342T” value in assay [5] stood at 11 µM (≈ 3.81 µg/mL). The MIC in assay [7] came to 0.13 ± 0.007 µM (≈ 0.045 µg/mL). For the same compound, in assay [8], the “MIC on solid medium, LP-0497553-RM1” value is 25 µM (≈ 8.66 µg/mL); the “MIC on solid medium, LP-0497553-RM2” value was 25 µM (≈ 8.66 µg/mL); the “MIC on solid medium, LP-0497553-RM4” value was 50 µM (≈ 17.3 µg/mL); the “MIC on solid medium, LP-0497553-RM5” value is 50 µM (≈ 17.3 µg/mL). In assay [8], the “MIC on solid medium, LP-0497553-RM10” value amounted to 50 µM (≈ 17.3 µg/mL); the “MIC on solid medium, LP-0497553-RM11” value turned out to be 50 µM (≈ 17.3 µg/mL); the “MIC on solid medium, LP-0497553-RM15” value was 50 µM (≈ 17.3 µg/mL). Besides, the MIC in assay [8] (read-out: MIC on solid medium, LP-0497553-RM14) amounted to 50 µM (≈ 17.3 µg/mL). Further, the MIC in assay [8] (read-out: MIC on solid medium, LP-0497553-RM23) came out at 50 µM (≈ 17.3 µg/mL).
For `FC(F)(F)c1ccc(CCNc2cc(-c3ccccc3)nc3ncnn23)cc1` [TPN-0006243], the “MIC, DprE1 C387S” value in assay [1] is 0.95 ± 0.29 µM (≈ 0.364 µg/mL). In assay [2], the “MIC, MmpL3 F255L” value worked out at 2.7 ± 2.4 µM (≈ 1.04 µg/mL). In addition, in assay [3], the “MIC, QcrB A396T” value was found to be 5.7 ± 2.1 µM (≈ 2.19 µg/mL). Besides, in assay [4], the “MIC, H37Rv ATCC 26518 QcrBT313I” value was >20 µM. Further, the “MIC, H37Rv ATCC 26518 QcrBM342T” value in assay [5] was >20 µM. For the same compound, the MIC in assay [7] is < 0.39 µM.
